Test results: patent US20230066011A1, “PYRROLOPYRIMIDINE DERIVATIVE, AND PHARMACEUTICAL COMPOSITION FOR PREVENTING OR TREATING PROTEIN KINASE-RELATED DISEASE COMPRISING SAME AS ACTIVE INGREDIENT” (VORONOI CO., LTD., priority 2019, published 2023)

How the values were obtained:
[1] = target: LRRK2 (Homo sapiens, UniProt Q5S007); test: LRRK2 enzyme inhibition, ADP-Glo kinase assay; format: biochemical; set-up: purchased Invitrogen PR8604B; conditions: ATP 10 μM
Method in brief: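 ADP-Glo luminescent read-out of ADP formed by purified human LRRK2 enzyme (25 ng), 10 μM ATP, 0.2 μg substrate, 25° C for 2 h, Tris-HCl pH 7.4 buffer with MgCl2, BSA, DTT. Inhibition versus untreated solvent control over twelve final concentrations (50 μM downward) gives IC50.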

[2] = tested on: human DYRK1A and tau; test: Inhibition of tau phosphorylation, ClariCELL Kinase Cell-Based Assay, HEK 293 cells expressing human DYRK1A and tau; conditions: for inhibition at 1 µM: HEK293, read-out: % inhibition at 1 uM, tau phosphorylation, compound 1 uM; for inhibition at 0.25 µM / inhibition at 0.5 µM: HEK293, tau phosphorylation; for inhibition at 0.25 µM: compound 0.25 uM; for inhibition at 0.5 µM: compound 0.5 uM
Method in brief: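 Cell-based service assay: HEK 293 cells transiently expressing human DYRK1A and tau were treated with compound and lysed. Released tau was plate-captured and its phosphorylation quantified by ELISA with a phospho-tau-specific antibody.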

[3] = target: T1, human GST-DYRK1A (Homo sapiens, UniProt Q13627); test: GST-DYRK1A enzyme inhibition, ADP-Glo kinase assay; format: biochemical; conditions: ATP 10 μM, GST-DYRK1A full length, read-out: DYRK1 IC50
T1 construct: purified human GST-DYRK1A (full length, Thermo Scientifics) enzyme; purchased Thermo Scientifics
Method in brief: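 Full-length enzyme (10 ng) was incubated with 10 μM ATP and a specific substrate for 1 h at 25 °C in 40 mM Tris-HCl pH 7.4, 20 mM MgCl2, 0.5 mg/mL BSA, 50 μM DTT. Luminescence was read against a solvent control, and IC50 values were derived from 3 data sets.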

LRRK2, sequence (Q5S007 970-2527 limits assumed): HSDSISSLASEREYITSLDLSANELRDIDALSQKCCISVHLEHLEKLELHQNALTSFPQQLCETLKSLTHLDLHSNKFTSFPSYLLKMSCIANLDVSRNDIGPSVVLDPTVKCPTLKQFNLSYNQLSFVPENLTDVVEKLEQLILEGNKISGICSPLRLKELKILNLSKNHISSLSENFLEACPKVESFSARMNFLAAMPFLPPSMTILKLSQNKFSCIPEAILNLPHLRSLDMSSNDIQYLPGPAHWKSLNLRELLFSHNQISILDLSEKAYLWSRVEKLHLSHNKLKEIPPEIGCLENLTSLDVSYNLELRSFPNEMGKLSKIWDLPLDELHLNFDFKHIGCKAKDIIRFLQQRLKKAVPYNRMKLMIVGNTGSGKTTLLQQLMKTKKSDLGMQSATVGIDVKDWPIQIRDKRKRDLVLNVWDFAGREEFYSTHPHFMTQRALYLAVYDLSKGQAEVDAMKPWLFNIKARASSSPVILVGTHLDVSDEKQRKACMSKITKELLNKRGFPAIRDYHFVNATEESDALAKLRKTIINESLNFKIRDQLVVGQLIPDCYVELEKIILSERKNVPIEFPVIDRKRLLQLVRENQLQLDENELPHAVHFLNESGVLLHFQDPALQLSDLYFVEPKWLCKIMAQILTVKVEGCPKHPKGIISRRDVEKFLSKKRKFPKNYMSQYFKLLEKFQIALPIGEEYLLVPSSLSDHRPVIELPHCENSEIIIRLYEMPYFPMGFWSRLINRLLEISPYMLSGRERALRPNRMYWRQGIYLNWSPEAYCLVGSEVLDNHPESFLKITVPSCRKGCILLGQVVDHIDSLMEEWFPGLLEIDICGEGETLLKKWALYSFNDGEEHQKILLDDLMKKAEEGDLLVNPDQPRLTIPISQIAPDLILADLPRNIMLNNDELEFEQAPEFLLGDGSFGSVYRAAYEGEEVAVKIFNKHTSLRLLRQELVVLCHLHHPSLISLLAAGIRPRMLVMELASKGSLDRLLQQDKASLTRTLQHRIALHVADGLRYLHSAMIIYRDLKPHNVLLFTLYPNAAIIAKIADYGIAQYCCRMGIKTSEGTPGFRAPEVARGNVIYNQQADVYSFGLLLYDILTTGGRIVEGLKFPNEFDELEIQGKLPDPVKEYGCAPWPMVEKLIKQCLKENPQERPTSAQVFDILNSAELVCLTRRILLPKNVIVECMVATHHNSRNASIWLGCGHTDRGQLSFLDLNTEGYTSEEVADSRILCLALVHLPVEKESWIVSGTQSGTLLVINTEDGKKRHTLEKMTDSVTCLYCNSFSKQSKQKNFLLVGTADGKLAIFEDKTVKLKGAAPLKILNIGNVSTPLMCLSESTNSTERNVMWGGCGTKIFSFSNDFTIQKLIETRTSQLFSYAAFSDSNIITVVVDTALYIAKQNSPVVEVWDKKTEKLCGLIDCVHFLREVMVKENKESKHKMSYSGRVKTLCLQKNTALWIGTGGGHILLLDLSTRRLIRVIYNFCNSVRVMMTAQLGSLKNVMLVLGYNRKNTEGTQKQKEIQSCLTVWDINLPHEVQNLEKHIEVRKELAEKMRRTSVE

Structure (SMILES) | IC50 [1] [nM] | IC50 [3] [nM] | inhibition at 1 µM [2] [%] | inhibition at 0.25 µM [2] [%] | inhibition at 0.5 µM [2] [%]
CNc1nc(Nc2ccc(C(=O)N3CC[C@H](N4CCOCC4)C3)c3c2OCC3)nc2[nH]cc(C(F)(F)F)c12 [Example 236, (S)-(7-((4-(methylamino)-5-(trifluoromethyl)-7H-pyrrolo[2,3-d]pyrimidin-2-yl)amino)-2,3-dihydrobenzofuran-4-yl)(3-morpholinopyrrolidin-1-yl)methanone] | < 100 | < 100 | 67 | 34.1 | 59.5
CCNc1nc(Nc2ccc(C(=O)N3CCC(N4CCOCC4)CC3)c3c2OCC3)nc2[nH]cc(C#N)c12 [Example 347, 4-(ethylamino)-2-((4-(4-morpholino-piperidine-1-carbonyl)-2,3-dihydro-benzofuran-7-yl)amino)-7H-pyrrolo[2,3-d]pyrimidine-5-carbonitrile] | < 100 | < 100 | 51.5 | 24.7 | 42.6
CNc1nc(Nc2ccc(C(=O)N3CCN(C4COC4)CC3)c3c2OCCO3)nc2[nH]cc(C(F)(F)F)c12 [Example 397, (8-((4-(methylamino)-5-(trifluoromethyl)-7H-pyrrolo[2,3-d]pyrimidin-2-yl)amino)-2,3-dihydrobenzo[b] [1,4]dioxin-5-yl) (4-(oxetan-3-yl)piperazin-1-yl)methanone] | < 100 | 101 to 300 | 52.8 | 12.9 | 41.1
O=C(c1ccc(Nc2nc(NC3CC3)c3c(C(F)(F)F)c[nH]c3n2)c2c1OCCO2)N1CCN(C2COC2)CC1 [Example 405, (8-((4-(cyclo-propylamino)-5-(trifluoromethyl)-7H-pyrrolo[2,3-d]pyrimidin-2-yl)amino)-2,3-dihydrobenzo[b] [1,4]dioxin-5-yl) (4-(oxetan-3-yl)piperazin-1-yl)methanone] | < 100 | < 100 | 70.7 | 17.5 | 44
O=C(c1ccc(Nc2nc(NC3CCC3)c3c(C(F)(F)F)c[nH]c3n2)c2c1OCCO2)N1CCN(C2COC2)CC1 [Example 407, (8-((4-(cyclo-butylamino)-5-(trifluoromethyl)-7H-pyrrolo[2,3-d]pyrimidin-2-yl)amino)-2,3-dihydrobenzo[b] [1,4]dioxin-5-yl) (4-(oxetan-3-yl)piperazin-1-yl)methanone] | < 100 | < 100 | 58.6 | 20.7 | 39.4
CNc1nc(Nc2ccc(P3(=O)CCN(C4CC4)CC3)cc2OC)nc2[nH]cc(C(F)(F)F)c12 [Example 411, 1-cyclopropyl-4-(3-methoxy-4-((4-(methylamino)-5-(trifluoromethyl)-7H-pyrrolo[2,3-d]pyrimidin-2-yl)amino)phenyl)-1,4-azaphosphinane-4-oxide] | < 100 | 101 to 300 | 70.8 | 28.5 | 48.9
CCNc1nc(Nc2ccc(S(=O)(=O)N3CCC(N4CCOCC4)CC3)c3c2OCCO3)nc2[nH]cc(C(F)(F)F)c12 [Example 430, N^4-ethyl-N^2-(8-((4-morpholino-piperidin-1-yl)sulfonyl)-2,3-dihydro-benzo[b][1,4]dioxin-5-yl)-5-(trifluoromethyl)-7H-pyrrolo[2,3-d]pyrimidine-2,4-diamine] | < 100 | 301 to 1000 | 65.3 | 10.8 | 41.6
O=C(c1ccc(Nc2nc(NC3CC3)c3c(C(F)(F)F)c[nH]c3n2)c2c1CCO2)N1CCC(N2CCOCC2)CC1 [Example 434, (7-((4-(cyclopropyl-amino)5-(trifluoromethyl)-7H-pyrrolo[2,3-d]pyrimidin-2-yl)amino)-2,3-dihydrobenzo-furan-4-yl)(4-morpho-linopiperidin-1-yl)methanone] | < 100 | < 100 | 87.3 | 47.4 | 65.2
COc1cc(P2(=O)CCN(C3CCOCC3)CC2)ccc1Nc1nc(NC2CC2)c2c(C(F)(F)F)c[nH]c2n1 [Example 435, 4-(4-((4-(cyclo-propylamino)-5-(trifluoromethyl)-7H-pyrrolo[2,3-d]pyrimidin-2-yl)amino)-3-methoxyphenyl)-1-(tetrahydro-2H-pyran-4-yl)-1,4-azaphosphinane 4-oxide] | < 100 | < 100 | 73.4 | 22.7 | 55.5

The next lines start with results.

IC50 [1] [nM] | IC50 [3] [nM] | Structure (SMILES) | inhibition at 1 µM [2] [%] | inhibition at 0.25 µM [2] [%] | inhibition at 0.5 µM [2] [%]
< 100 | – | CCNc1nc(Nc2ccc(S(=O)(=O)N3CCC(N4CCOCC4)CC3)cc2OC)nc2[nH]cc(C(F)(F)F)c12 [Example 158, N^4-ethyl-N^2-(2-methoxy-4-((4-morpholinopiperidin-1-yl)sulfonyl)phenyl)-5-(trifluoromethyl)-7H-pyrrolo[2,3-d]pyrimidine-2,4-diamine 2,2,2-trifluoroacetate] | 66.8 | 25.4 | 59.7
< 100 | – | CCCNc1nc(Nc2ccc(S(=O)(=O)N3CCC(N4CCOCC4)CC3)cc2OC)nc2[nH]cc(C(F)(F)F)c12 [Example 161, N^2-(2-methoxy-4-((4-morpholinopiperidin-1-yl)sulfonyl)phenyl)-N^4-propyl-5-(trifluoromethyl)-7H-pyrrolo[2,3-d]pyrimidine-2,4-diamine] | 50 | 0 | 27.9
< 100 | < 100 | CNc1nc(Nc2ccc(C(=O)N3CCC(N4CCOCC4)CC3)c3c2OCC3)nc2[nH]cc(C(F)(F)F)c12 [Example 217, (7-((4-(methylamino)-5-(trifluoromethyl)-7H-pyrrolo[2,3-d]pyrimidin-2-yl)amino)-2,3-dihydrobenzofuran-4-yl)(4-morpholinopiperidin-1-yl)methanone] | 77.9 | 32 | 63.7
< 100 | < 100 | CNc1nc(Nc2ccc(S(=O)(=O)N3CCC(N4CCOCC4)CC3)c3c2OCCO3)nc2[nH]cc(C(F)(F)F)c12 [Example 219, N^4-methyl-N^2-(8-((4-morpholinopiperidin-1-yl)sulfonyl)-2,3-dihydrobenzo[b][1,4]dioxin-5-yl)-5-(trifluoromethyl)-7H-pyrrolo[2,3-d]pyrimidine-2,4-diamine] | 84.2 | 42.1 | 58.8
< 100 | – | COc1cc(S(=O)(=O)N2CCC(N3CCOCC3)CC2)ccc1Nc1nc(C2CC2)c2c(C#N)c[nH]c2n1 [Example 224, 4-cyclopropyl-2-((2-methoxy-4-((4-morpholinopiperidin-1-yl)sulfonyl)phenyl)amino)-7H-pyrrolo[2,3-d]pyrimidine-5-carbonitrile] | 39.9 | 3.6 | 15.6
< 100 | – | O=C(c1ccc(Nc2nc(C3CC3)c3c(C(F)(F)F)c[nH]c3n2)c2c1OCCO2)N1CCC(N2CCOCC2)CC1 [Example 228, (8-((4-cyclopropyl-5-(trifluoromethyl)-7H-pyrrolo[2,3-d]pyrimidin-2-yl)amino)-2,3-dihydrobenzo[b][1,4]dioxin-5-yl)(4-morpholinopiperidin-1-yl)methanone] | 49 | 9.3 | 24.7
